{"source": "patent US7939567B2", "about": "“Dextromethorphan-based method for treating acne” (Blue Blood Biotech Corp., priority 2006, dated 2011)", "key": {"IL-6": {"system": "IL-6", "assay": "LPS-induced macrophage release of IL-6 (THP-1, ELISA)", "assay_type": "cell-based, human", "details": "pretreated 1 hour, various concentrations, then LPS 24 hours", "method": "(§1) The monocytic THP-1 cells were cultured and differentiated into macrophages. The macrophages were pretreated with various concentrations of Dextromethophan or naloxone for 1 hour and subsequently incubated with lipopolysaccharide (LPS) for 24 hours.\n(§2) RPMI 1640 medium, phorbol 12-myristate-13-acetate (PMA), LPS (Escherichia coli 0111:B4) and naloxone were purchased from Sigma. The human THP-1 monocytic cell line was purchased from Food Industry Research and Development Institute, Hsin Chu, Taiwan. Levels of tumor necrosis factor-α (TNF-α), interleukin-6 (IL-6) and monocyte chemoattractant protein-1 (MCP-1) in medium were determined with monoclonal antibody based ELISA kits purchased from R&D Systems (Minneapolis, Minn., USA), and all animal experiments were approved by the Institutional Animal Care and Use Committee.\n(§3) The THP-1 cells were grown in RPMI-1640 medium containing 10% fetal bovine serum at 37° C. in 5% CO2. […] The levels of TNF-α, IL-6 and MCP-1 in the supernatants were determined using ELISA kits.\nThe inflammatory reaction can be inhibited by dextromethorphan at less than 0.01 μM. The THP-1 cell treated with LPS at 1 Unit/ml in the presence of dextromethorphan for 24 hrs and the TNF-α and IL-6 released in the culture medium was measured with ELISA (FIG. 1). […] The results are expressed as mean±SD of 3 experiments. ** p<0.01 and *** p<0.001 are compared with the LPS-treated cultures. […]"}, "MCP-1": {"system": "MCP-1", "assay": "LPS-induced macrophage release of MCP-1 (THP-1, ELISA)", "assay_type": "cell-based, human", "details": "pretreated 1 hour, various concentrations, then LPS 24 hours", "method": "as §1, §2\nas §3, with “CO2. The cells were differentiated to macrophages after treatment with 100 nM PMA to the culture for 24 hours.” for “CO2.”\n(§4) Effect of naloxone treatment on the LPS-induced macrophage release of TNF-α (A), IL-6 (B) and MCP-1 (C). […] The results are expressed as mean±SD of 3 experiments. * p<0.05; ** p<0.01; *** p<0.001 compared with the LPS-treated cultures (FIG. 2)."}, "TNF-α": {"system": "TNF-α", "assay": "LPS-induced macrophage release of TNF-α (THP-1, ELISA)", "assay_type": "cell-based, human", "details": "for concentration of TNF-α in the medium of THP-1 cells after LPS stimulation: pretreated 1 hour, various concentrations, then LPS 24 hours", "method": "as §1, §2\nThe THP-1 cells were grown in RPMI-1640 medium containing 10% fetal bovine serum at 37° C. in 5% CO2. The cells were differentiated to macrophages after treatment with 100 nM PMA to the culture for 24 hours. The cell suspension (5×10^5) was added in 0.5 mL into each well of the tissue culture plates. LPS was dissolved in sterile water and stored at −70[…] in aliquots. In treatment group, the THP-1 cell culture was pretreated for 1 hour with various concentrations of dextromethorphan or naloxone and followed by treatment with 10 μg/mL LPS for up to 24 hours. […] The levels of TNF-α, IL-6 and MCP-1 in the supernatants were determined using ELISA kits.\nThe inflammatory reaction can be inhibited by dextromethorphan at less than 0.01 μM. The THP-1 cell treated with LPS at 1 Unit/ml in the presence of dextromethorphan for 24 hrs and the TNF-α and IL-6 released in the culture medium was measured with ELISA (FIG. 1). […] The results are expressed as mean±SD of 3 experiments. ** p<0.01 and *** p<0.001 are compared with the LPS-treated cultures.\nas §4"}, "P. acnes": {"system": "P. acnes", "assay": "DM disc diffusion on P. acnes lawn", "assay_type": "cell-based, Propionibacterium acnes", "details": "37° C., 96 hours", "method": "Spread 0.1 ml medium including bacteria cells which OD595 value was about 0.1×10^6 CFU/ml onto RCM agar plate. Pasted 0.8 cm filter paper and dropped 20 μl of DM into it. Bacteria were cultured under anaerobic at 37° C. for 96 hours and the size of the antibiotic circle was measured."}, "[1]": {"details": "humans, oral dosage form, either alone or with quinidine; cited from earlier work"}, "TNF-a": {"system": "TNF-a", "details": "LPS-induced endotoxemia in rodents; mitigation of circulatory failure and mortality; cited from earlier work"}, "Staphylococcus aureaus": {"system": "Staphylococcus aureaus", "assay": "DM disc diffusion on S. aureus lawn", "assay_type": "cell-based", "details": "S. aueaus lawn, 37° C., 96 hours", "method": "Based for antimicrobial disk diffusion Susceptibility Testing is Mueller Hinton II agar obtained from Becton, Dickinson and Company, France.\nPrepared Mueller-Hinton-II-agar by suspending 38 g of the powder in 1L of double-distilled water. Autoclaved the agar at 121° C. for 15 min. The agar was poured into each agar plate and waited for solidifying. S. aureaus of 10^5 CFU in 100 μl medium were spread on the agar plate and were grown for 96 hours."}, "Propionibacterium acnes": {"system": "Propionibacterium acnes", "assay": "MIC test of P. acnes (broth dilution, OD595)", "assay_type": "cell-based", "set-up": "key: +: Growth Inhibition; —: No Growth Inhibition", "details": "anaerobic, 37° C., 96 hours", "method": "Prepared DM stock solution in 500,000 ppm (50%). Added 0.25 g DM into […] DMSO and stirred until mixed well. Then serial diluted 500,000 ppm DM. Centrifuged 5 ml Propionibacterium acnes in RCM (Reinforced Clostridial Medium) culture. Adjusted concentration of bacteria cell in medium by 20 times dilution about OD595=0.1×10^6 CFU/ml. Dispersed 200 μl bacteria cell in medium in aliquot to each 96-well plate. Mixed medium including bacteria cell and 2 μl DM, triplicate tests at each concentration. Bacteria cultured under anaerobic at 37° C. for 96 hours and measured the value at OD595. MIC meant the lowest concentration of anti-bacterial agent that sufficient to suppress the growth of bacteria (e.g. growth inhibition)."}, "Bacteroides fragilis": {"system": "Bacteroides fragilis", "assay": "MIC test of B. fragilis (thioglycollate broth)", "assay_type": "cell-based", "set-up": "key: +: Growth Inhibition; —: No Growth Inhibition", "details": "anaerobic, 24 h", "method": "Bacteroides fragilis growing in 18-24 hours in the anaerobic thioglycollate broth was used to formulate the suspension of bacteria cells of McFarland 0.5. Diluted 0.5 g/ml DMSO stock solution with anaerobic Thioglycollate broth. Added 1000 μl anaerobic Thioglycollate broth into 1000 μl of DM diluent with 1:1 ratio, and then put into the anaerobic incubator to incubate for 24 h."}, "E. coli": {"system": "E. coli", "assay": "DM disc diffusion on E. coli lawn", "assay_type": "cell-based", "details": "37° C., 96 hours", "method": "Base for antimicrobial disk diffusion Susceptibility Testing is made of Mueller Hinton II agar obtained from Becton, Dickinson and Company, France.\nPrepared Mueller-Hinton-II-agar by suspending 38 g of the powder in 1L of double-distilled water. Autoclaved the agar at 121° C. for 15 min. t The agar was poured into each agar plate and waited for solidifying. E. coli of 1×10^5 CFU in 100 μl medium was spread on to the agar plate and were grown for 96 hours."}}}
{"smiles": "C=CCN1CC[C@]23c4c5ccc(O)c4O[C@H]2C(=O)CC[C@@]3(O)[C@H]1C5", "note": "[naloxone, 17-allyl-4,5α-epoxy-3,14-dihydroxymorphinan-6-one]", "values": [{"measurement": "concentration of IL-6 in the medium of THP-1 cells after LPS stimulation", "setting": "IL-6", "result": "significantly reduced"}, {"measurement": "concentration of MCP-1 in the medium of THP-1 cells after LPS stimulation", "setting": "MCP-1", "result": "significantly reduced"}, {"measurement": "concentration of TNF-α in the medium of THP-1 cells after LPS stimulation", "setting": "TNF-α", "result": "significantly reduced"}]}
{"smiles": "Oc1cc(Cl)ccc1Oc1ccc(Cl)cc1Cl", "note": "[Triclosan]", "values": [{"measurement": "Diameter of clear zone", "setting": "P. acnes; 0.1% Triclosan, Disc No. 8, anaerobic", "result": 30, "unit": "mm"}]}
{"smiles": "COc1ccc2c(c1)[C@]13CCCC[C@@H]1[C@H](C2)N(C)CC3", "note": "[DM, (+)-3-methoxy-17-methyl-9a,13a,14a-morphinan]", "values": [{"measurement": "well tolerated oral dosage", "setting": "[1]", "result": "up to 120 milligrams (mg) per day"}, {"measurement": "Diameter of clear zone", "setting": "P. acnes; 2.5% DM, Disc No. 6, anaerobic", "result": 12, "unit": "mm"}, {"measurement": "Diameter of clear zone", "setting": "P. acnes; 5% DM, Disc No. 5, anaerobic", "result": 34, "unit": "mm"}, {"measurement": "effect on TNF-a, NO and superoxide anion", "setting": "TNF-a", "result": "inhibits"}, {"measurement": "Diameter of clear zone", "setting": "Staphylococcus aureaus; 5% DM", "result": 10, "unit": "mm"}, {"measurement": "Diameter of clear zone", "setting": "Staphylococcus aureaus; 10% DM", "result": 14, "unit": "mm"}, {"measurement": "Growth Inhibition", "setting": "Propionibacterium acnes; DM 125 ppm (0.0125%)", "result": "—"}, {"measurement": "Growth Inhibition", "setting": "Propionibacterium acnes; DM 250 ppm (0.025%)", "result": "—"}, {"measurement": "Growth Inhibition", "setting": "Propionibacterium acnes; DM 500 ppm (0.05%)", "result": "+"}, {"measurement": "Growth Inhibition", "setting": "Propionibacterium acnes; DM 1000 ppm (0.1%)", "result": "+"}, {"measurement": "Growth Inhibition", "setting": "Propionibacterium acnes; DM 1250 ppm (0.125%)", "result": "+"}, {"measurement": "Growth Inhibition", "setting": "Propionibacterium acnes; DM 2500 ppm (0.25%)", "result": "+"}, {"measurement": "Growth Inhibition", "setting": "Propionibacterium acnes; DM 5000 ppm (0.5%)", "result": "+"}, {"measurement": "Growth Inhibition", "setting": "Bacteroides fragilis; DM 500 ppm (0.05%)", "result": "—"}, {"measurement": "Growth Inhibition", "setting": "Bacteroides fragilis; DM 1000 ppm (0.1%)", "result": "—"}, {"measurement": "Growth Inhibition", "setting": "Bacteroides fragilis; DM 1250 ppm (0.125%)", "result": "+"}, {"measurement": "Growth Inhibition", "setting": "Bacteroides fragilis; DM 2500 ppm (0.25%)", "result": "+"}, {"measurement": "Growth Inhibition", "setting": "Bacteroides fragilis; DM 5000 ppm (0.5%)", "result": "+"}, {"measurement": "concentration of IL-6 in the medium of THP-1 cells after LPS stimulation", "setting": "IL-6", "result": "significantly reduced"}, {"measurement": "concentration of MCP-1 in the medium of THP-1 cells after LPS stimulation", "setting": "MCP-1", "result": "significantly reduced"}, {"measurement": "Diameter of clear zone", "setting": "E. coli; 2.5% DM", "result": 9.5, "unit": "mm"}, {"measurement": "Diameter of clear zone", "setting": "E. coli; 5% DM", "result": 13, "unit": "mm"}, {"measurement": "Diameter of clear zone", "setting": "E. coli; 10% DM", "result": 18, "unit": "mm"}, {"measurement": "concentration at which the inflammatory reaction can be inhibited", "setting": "TNF-α; THP-1 cell treated with LPS for 24 hrs, TNF-α and IL-6 released in medium measured with ELISA", "result": "less than 0.01 μM"}, {"measurement": "concentration of TNF-α in the medium of THP-1 cells after LPS stimulation", "setting": "TNF-α", "result": "significantly reduced"}]}
